Measurements: the supplement of paper PMC10307832

Columns and labels:
Assay in all cases: relative viability (nuclei count vs DMSO), 5 days (fraction); higher = more cells survive
[1] = compound: COC1=C(C=C(C=C1)C2=CC3=NC=CN3C(=N2)NC4=C(C=CC=N4)C(=O)N)OC [BAY61-3606] + O=C(CCCCCCC(=O)Nc1ccccc1)NO [Vorinostat] (partner 1 µM)
Procedure, shortened: (§1)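 Lung cancer cell lines in 1536-well plates were dosed by pin tool the day after seeding, either with one drug alone or with a fixed anchor-drug dose plus five library-drug doses (not always all listed) in √10 steps. After 5 days, cells were fixed and their nuclei stained in one step (final 0.05% Triton X-100, 1% formaldehyde, 1 ug/ml Hoechst), then counted on 4× images. Relative viability is the nuclei count in treated wells divided by that in vehicle wells. Values are medians of duplicate plates.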

[2] = compound: COc1cccc2c1C(=O)c1c(O)c3c(c(O)c1C2=O)C[C@@](O)(C(=O)CO)C[C@@H]3O[C@H]1C[C@H](N)[C@H](O)[C@H](C)O1 [Doxorubicin] + CC(=O)Nc1cccc(-n2c(=O)n(C3CC3)c(=O)c3c(Nc4ccc(I)cc4F)n(C)c(=O)c(C)c32)c1 [Trametinib] (partner 0.02 µM)
Procedure, shortened: as §1

[3] = compound: COc1cccc2c1C(=O)c1c(O)c3c(c(O)c1C2=O)C[C@@](O)(C(=O)CO)C[C@@H]3O[C@H]1C[C@H](N)[C@H](O)[C@H](C)O1 [Doxorubicin] + CC1(C)CCC(c2ccc(Cl)cc2)=C(CN2CCN(c3ccc(C(=O)NS(=O)(=O)c4ccc(N[C@H](CCN5CCOCC5)CSc5ccccc5)c(S(=O)(=O)C(F)(F)F)c4)cc3)CC2)C1 [Navitoclax] (partner 0.5 µM)
Procedure, shortened: as §1

[4] = compound: COC1=C(C=C(C=C1)C2=CC3=NC=CN3C(=N2)NC4=C(C=CC=N4)C(=O)N)OC [BAY61-3606] + COc1cc2c(Oc3ccc(NC(=O)C4(C(=O)Nc5ccc(F)cc5)CC4)cc3F)ccnc2cc1OCCCN1CCOCC1 [Foretinib] (partner 0.25 µM)
Procedure, shortened: as §1

Row | Cell Line | relative viability ([1]; first compound 0.02 µM) | relative viability ([1]; first compound 0.06325 µM) | relative viability ([1]; first compound 0.2 µM) | relative viability ([1]; first compound 0.6325 µM) | relative viability ([1]; first compound 2 µM) | relative viability ([2]; first compound 0.001 µM) | relative viability ([2]; first compound 0.003162 µM) | relative viability ([2]; first compound 0.01 µM) | relative viability ([2]; first compound 0.03162 µM) | relative viability ([2]; first compound 0.1 µM) | relative viability ([3]; first compound 0.001 µM) | relative viability ([3]; first compound 0.003162 µM) | relative viability ([3]; first compound 0.01 µM) | relative viability ([3]; first compound 0.03162 µM) | relative viability ([3]; first compound 0.1 µM) | relative viability ([4]; first compound 0.02 µM) | relative viability ([4]; first compound 0.06325 µM) | relative viability ([4]; first compound 0.2 µM) | relative viability ([4]; first compound 0.6325 µM) | relative viability ([4]; first compound 2 µM)
1 | HCC-44 | 1.05 | 1.05 | 1 | 0.966 | 1.26 | 0.987 | 1.11 | 1.05 | 1.05 | 1.07 | 1.01 | 1.15 | 0.969 | 1.01 | 1.03 | – | – | – | – | –
2 | HCC-78 | 0.432 | 0.423 | 0.444 | 0.553 | 0.41 | 0.723 | 0.85 | 0.735 | 0.668 | 0.66 | 0.41 | 0.689 | 0.753 | 0.692 | 0.768 | 0.519 | 0.516 | 0.568 | 0.545 | 0.578
3 | HCC-366 | 0.383 | 0.385 | 0.175 | 0.345 | 0.244 | 0.334 | 0.363 | 0.353 | 0.227 | 0.325 | – | 1.03 | 0.99 | 0.809 | 1.07 | 0.934 | 0.942 | 0.93 | 0.924 | 0.893
4 | HCC-827 | 0.858 | 0.828 | 1.04 | 0.85 | 0.941 | 0.549 | 0.526 | 0.533 | 0.509 | 0.486 | 1.03 | 1.03 | 1.06 | 1.1 | 1.03 | 1.04 | 1.01 | 1.11 | 1.07 | 1.03
5 | HOP-62 | – | 0.544 | 0.538 | 0.667 | 0.397 | 0.373 | 0.389 | 0.413 | 0.411 | 0.373 | 1.06 | 0.927 | 0.988 | 0.944 | 1.01 | 1.05 | 1.04 | 1.1 | 1.13 | 0.815
6 | IA-LM | 0.947 | 0.851 | 0.894 | 1.25 | 0.96 | – | – | – | – | – | 0.616 | 0.821 | 0.6 | 0.278 | 0.0497 | 1.23 | 1.09 | 1.01 | 1.13 | 0.959
7 | LC-2-ad | 0.821 | 0.743 | 0.588 | 0.707 | 0.721 | 0.949 | 0.888 | 0.924 | 0.924 | 0.895 | 0.386 | 0.384 | 0.567 | 0.496 | 0.506 | 1.05 | 0.83 | 0.971 | 1.11 | 0.653
8 | LCLC-97TM1 | 0.893 | 0.818 | 0.534 | 0.778 | 0.589 | 0.193 | 0.219 | 0.15 | 0.199 | 0.209 | 0.284 | 0.411 | 0.524 | 0.398 | 0.331 | 0.92 | 0.943 | 0.962 | 1.04 | 0.765
9 | LCLC-103H | 0.782 | 0.716 | 0.724 | 0.791 | 0.789 | 0.704 | 0.725 | 0.697 | 0.65 | 0.623 | – | – | – | – | – | 0.81 | 0.83 | 0.832 | 0.701 | 0.681
10 | LK-2 | 0.264 | 0.297 | 0.301 | 0.327 | 0.306 | 0.798 | 0.936 | 0.598 | 0.578 | 0.699 | 0.894 | 0.875 | 0.889 | 0.638 | 0.804 | 1.24 | 1.19 | 1 | 1.32 | 0.768
11 | NCI-H358 | 0.697 | 0.759 | 0.631 | 0.658 | 0.386 | 0.164 | 0.138 | 0.138 | 0.089 | 0.0919 | – | – | – | – | – | 0.773 | 0.457 | 0.652 | 0.637 | 0.286
12 | NCI-H522 | 0.896 | 0.869 | 0.839 | 0.733 | 0.661 | 0.706 | 0.79 | 0.76 | 0.708 | 0.777 | – | – | – | – | – | – | – | – | – | –
13 | NCI-H650 | 0.466 | 0.414 | 0.428 | 0.355 | 0.35 | 0.98 | 0.876 | 1.04 | 0.881 | 0.917 | – | – | – | – | – | 1.1 | 1.02 | 1.02 | 1.09 | 0.8
14 | NCI-H661 | 0.78 | 0.825 | 0.773 | 0.864 | 0.779 | 0.613 | 0.604 | 0.488 | 0.401 | 0.388 | – | – | – | – | – | 1.06 | 1.05 | 0.99 | 1.02 | 0.941
15 | NCI-H1299 | – | – | – | – | – | – | – | – | – | – | 1.05 | 1.06 | 1.08 | 1.06 | 0.947 | 1.12 | 1.07 | 1.11 | 1.03 | 1.07
16 | NCI-H1563 | – | – | – | – | – | – | – | – | – | – | – | – | – | – | – | 1.03 | 0.99 | 0.893 | 0.931 | 0.847
17 | NCI-H1623 | – | – | – | – | – | – | – | – | – | – | – | – | – | – | – | 0.841 | 0.919 | 0.896 | 0.864 | 0.846
18 | NCI-H1648 | 0.797 | 0.44 | 0.648 | – | 0.706 | 0.474 | 0.429 | 0.555 | 0.492 | 0.541 | – | – | – | – | – | – | – | – | – | –
19 | NCI-H1703 | – | – | – | – | – | – | – | – | – | – | 0.735 | 0.902 | 0.386 | 0.195 | 0.14 | 0.337 | – | 0.315 | 0.316 | 0.346
20 | NCI-H1792 | – | – | – | – | – | 0.393 | 0.556 | 0.456 | 0.392 | 0.422 | 0.634 | 0.556 | 0.62 | 0.582 | 0.597 | – | – | – | – | –
21 | NCI-H2342 | 0.87 | 0.818 | 0.835 | 0.867 | 0.762 | 0.901 | 0.729 | 0.954 | 0.685 | 0.724 | – | – | – | – | – | 1.03 | 1.05 | 1.02 | 1.22 | 0.957
22 | SW 900 | 0.457 | – | – | 0.564 | 0.439 | – | 1.01 | 0.75 | 0.623 | 1.03 | – | – | – | – | – | 0.826 | 0.949 | 0.571 | 1.11 | 0.586
